As usually defined, the mortality is the percentage killed. Read a high mortality as fewer survivors.

SMILES strings stand for the structures. Structures can show the parent of a compound that is named as a salt. Where two headings read alike, the source gives them in different places.

This is an account of results in patent US6008046A, “Drug and pesticide screening” (priority 1993, dated 1999).

The target in data set [1] is normal GABA receptor (wild-type Rdl, cDNA 14.1) (Drosophila melanogaster, UniProt P25123, I283V). Briefly: cell-based. As to conditions: for Reduction in GABA response (mean (s.d.)): xenopus oocytes. As for the experimental part: (§1) The cloning of cDNA's from the GABAA locus allows for functional expression of mRNA derived from this and other subunit cDNA templates in various cell types.
(§2) In the Xenopus oocyte expression system, oocytes removed from ovaries of adult Xenopus are arrested at the first meiotic prophase. Because each oocyte is fairly large and has a large nucleus, it is technically easy to inject foreign DNA into the oocyte nucleus. Typically, 20-40 nl is injected through a finely drawn glass capillary. The endogenous Xenopus RNA polymerases transcribe this injected exogenous DNA. Mertz and Gurdon, Proc. Natl. Acad. Sci. USA 74:1502 (1977). The exogenous DNA is assembled into chromatin, but there is no replication of injected duplex DNA in the oocyte. Gargilo and Worcel, J. Mol. Biol., 170:699 (1983); Ryoji and Worcel, Cell 37:21 (1984). Single-stranded DNA (e.g., DNA obtained by cloning in M13 vectors), is converted to duplex form within the oocyte nucleus. The Xenopus oocyte also efficiently translates mRNA injected into its cytoplasm.
(§3) Various studies have shown that this Xenopus expression system is feasible for expression of foreign DNA. Kreig and Melton, EMBO J 4:3464 (1985); Masu et al., Nature 329:836 (1987); Wilson et al., Cell 47:589 (1986); see also, Old and Primrose, Principles of Gene Manipulation, 4th ed. (Blackwell Scientific Publications, Oxford, 1989)(pp. 296-302).
(§4) In the system of the present invention, messenger RNA produced from cDNA template, (both messenger RNA and cDNA template are considered to be part of the present invention), is injected into Xenopus eggs which then express the protein. By patch clamp electrophysiology experiments, one can then determine whether the cell is expressing the protein (measured by electrical impulses) and whether this expression can be altered by the compound of interest.
(§5) Currents were recorded in 96 mM NaCl, 2 mM Kcl, 1.8 mM MgCl2, and 5 mM Hepes. Recordings were made 1-5 days after injection. […] Dieldrin was dissolved in DMSO (dimethylsulfoxide), then diluted to a final concentration of 0.1% DMSO. The single base pair substitution of GCG (alanine) to TCG (serine) was introduced into the sensitive cDNA 14.1 by subcloning in a restriction fragment from the insensitive cDNA. The region containing the mutation was then amplified by PCR from total embryonic RNA from Rdl^R-MD flies and subsequently digested with EcoRV and Acc1. This restriction fragment was then cloned into the sensitive cDNA 14.1 cut with the same enzymes to yield the Ala to Ser mutant construct.
(§6) In order to test the effect of the resistance-associated Ala to Ser mutation, this substitution was introduced into the sensitive cDNA (as discussed above). […] Pharmacological comparisons were made using thirty oocytes injected with each type of RNA.

The target in data set [2] is T1, mutant GABA receptor (Ala to Ser mutant Rdl) (Drosophila melanogaster, UniProt P25123, A301S/I283V).
T1 construct: expressed in transfected cells; host or cells: Xenopus oocytes injected with RNA derived from the Ala to Ser mutant of cDNA 14.1
Briefly: Two-electrode voltage clamp of Xenopus oocytes expressing Ala to Ser mutant GABA receptor. Format: cell-based. As to conditions: for response of mutant channels to GABA and muscimol compared with wild-type channels: Ala to Ser mutant vs wild-type; for sensitivity of Ala>Ser mutant compared with wild-type: thirty oocytes with each type of RNA (FIGS. 10b-e); for Reduction in GABA response (mean (s.d.)): xenopus oocytes. As for the experimental part:
as §1, §2, §3, §4, §5, §6
For orientation: Two-electrode voltage clamp is typically applied to oocytes expressing channels or transporters.

The subject of data set [3] is cultured Rdl^R-MD neurons. Nature of the data set: Whole cell patch clamp of cultured Rdl^R-MD neurons. The note with it: PTX. The data set is classed as cell-based, Drosophila melanogaster. For orientation: In patch-clamp work, channel activity is measured electrically.
Data set [4] relates to PTX binding sites on the GABA receptor. As to conditions: cyclodiene-resistant vs susceptible strains; Matsumura et al. 1987; cited from earlier work.
For data set [5], the system named is mutant GABA receptor (Ala to Ser mutant Rdl). Nature of the data set: Two-electrode voltage clamp of Xenopus oocytes expressing Ala to Ser mutant GABA receptor. Format: cell-based, Drosophila melanogaster. On the procedure:
as §1, §2, §3, §4, §5, §6

Data set [6] deals with D. melanogaster. Nature of the data set: Dieldrin contact bioassay, fly mortality in coated vials after 24 hours. The data set is classed as in vivo. As to conditions: for mortality at 0.03 mg: Drosophila melanogaster, 24 h, 30 μg dieldrin. On the procedure:
More specifically, FIG. 2 depicts the crosses used to rescue cyclodiene insecticide susceptibility via P-element-mediated germline transformation. As depicted, embryos containing an endogenous source of transposase (Δ2,3) were injected with a cosmid carrying a susceptible copy of the gene and a copy of the mini-white eye color gene as a selectable marker. Successful G0 transformants with red eyes (w^+) were subsequently crossed into flies hemizygous for resistance and a deficiency uncovering the resistance gene Df(3L)29A6. These flies carrying the w^+ S insert (transferred DNA) are susceptible to a dose of 30 μg dieldrin, whereas their siblings without the insert are resistant to this dose.
In order to more precisely localize the gene within the 200 kb of DNA isolated from the 66F subregion, new chromosomal rearrangements were induced using γ irradiation and screened for those uncovering the resistance gene. Chromosomal rearrangements were generated by exposing male SS flies with multiply marked third chromosomes (rucuca strain) to 4,000 rads of radiation in a γ radiation (cesium) source, and then outcrossing these R/R (Rdl^R /Rdl^R) females. New rearrangements uncovering resistance were screened for by exposing their progeny at a dose of 30 μg dieldrin, at which only R/Df (Rdl^R /Df) flies will survive (all the expected RS progeny will die at this dose level except for any R/- flies wherein "-" is any new rearrangement uncovering the resistance gene), survivors were crossed to In(3LR)TM3/Sb and maintained as a balanced stock (Df/In(3LR)TM3).
Approximately 50,000 flies were screened. For screening, 20 ml glass scintillation vials were coated internally with 30 μg of dieldrin in acetone and rolled until dry. Twenty to thirty flies per vial were added and mortality was recorded after 24 hours at 25° C..
As both of the cytologically visible rearrangements giving two new recombinant bands on a Southern with probes from cosmid 6 have only one breakpoint within 66F, this cluster of breakpoints which disrupts the gene must therefore mark its location. In order to determine whether cosmid 6 contained a functional copy of the gene for cyclodiene resistance, P-element germline transformation with this cosmid was carried out. Following successful isolation of a w^+ transformant, linkage to the insert to the second chromosome was established after crossing male G0 progeny to a stock bearing markers on the second and third chromosomes (FIG. 2). […]
Entomol., 83:1733, (1990). […] These field-collected and isofemale strains were used in the initial identification of the resistance-associated mutation, but studies of linkage to other restriction-site markers in D. melanogaster were done with isochromsomal lines to ensure that only a single chromosome was being analyzed.

Data set [7] deals with larval central nerve cord of Rdl^R-MD. As to conditions: dieldrin, 10 μM concentration; Bloomquist et al. 1991; cited from earlier work.
Data set [8] has as its system D. melanogaster. The note with it: 30 μg dieldrin, ffrench-Constant et al. 1990, cited from earlier work.
The test system of the next data set is chloride ion channels. As to conditions: thiocyanate ions vs chloride; cited from earlier work.
The mark [9] stands for this setting: wild-type mRNA, voltage clamped at -60 mV.
Where [10] appears, read: read-out: Reduction in GABA response (mean (s.d.)).

T1 sequence (P25123 other isoform, or with tags, fused parts or gaps I283V/A301S): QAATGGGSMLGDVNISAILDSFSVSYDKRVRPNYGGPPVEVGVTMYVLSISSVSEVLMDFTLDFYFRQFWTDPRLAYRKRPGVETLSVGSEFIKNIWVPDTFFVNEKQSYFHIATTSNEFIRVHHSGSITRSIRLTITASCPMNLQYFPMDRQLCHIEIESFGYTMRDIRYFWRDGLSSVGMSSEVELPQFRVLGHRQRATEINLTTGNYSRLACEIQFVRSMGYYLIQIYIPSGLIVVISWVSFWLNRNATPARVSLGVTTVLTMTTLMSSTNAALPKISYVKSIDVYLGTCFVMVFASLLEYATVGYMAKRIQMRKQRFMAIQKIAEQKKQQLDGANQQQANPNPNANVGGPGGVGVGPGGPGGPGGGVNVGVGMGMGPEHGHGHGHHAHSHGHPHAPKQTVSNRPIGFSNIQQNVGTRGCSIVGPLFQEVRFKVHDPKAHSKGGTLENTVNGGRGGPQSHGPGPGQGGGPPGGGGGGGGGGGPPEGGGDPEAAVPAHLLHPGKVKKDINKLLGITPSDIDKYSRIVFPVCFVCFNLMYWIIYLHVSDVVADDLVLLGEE
Chain of normal GABA receptor (wild-type Rdl, cDNA 14.1) (P25123 other isoform, or with tags, fused parts or gaps I283V): as the sequence (P25123 other isoform, or with tags, fused parts or gaps I283V/A301S) above, with S257A counted along it

`NCCCC(=O)O` [GABA, γ-aminobutyric acid]: the “recovery of response to GABA during washing” value in [1] (after PTX or dieldrin, washed with saline 20 min, all experiments (wild-type and mutant)) was “at least 50%”. In addition, in data set [1] (wild-type mRNA), the “reversal potential of GABA-evoked currents” value was -20 to -25 mv. In addition, in data set [1] (setting [9]), the “maximum current, lower end of range” value is 50 nA and the “maximum current, upper end of range” value is on record as over 5 μA. Further, the “response of mutant channels to GABA and muscimol compared with wild-type channels” value in data set [2] is “apparently identical to the wild-type channels”.
Turning to `C=C(C)[C@@H]1[C@H]2OC(=O)[C@@H]1[C@]1(O)C[C@H]3O[C@]34C(=O)O[C@H]2[C@]14C` [PTX, Picrotoxinin], in [3], the reduction in sensitivity entry is “approximately 100 fold”. Moreover, the “affinity for PTX of resistant strains relative to susceptibles” value in [4] was “one tenth”. Further, the inhibition at 1 µM in data set [1] (setting [10]) is 73%; in data set [1] (read-out: block of the GABA response, 1 μM PTX, wild-type "sensitive" cDNA (FIG. 10b)), over 70%; in data set [2] (setting [10]), 8%; in data set [2] (read-out: Reduction in GABA response (mean (s.d.)), Mutant, 1 μM PTX, oocytes with GABA EC50 […] μM, n = 6), 8%. Moreover, the inhibition at 10 µM in data set [1] (setting [10]) was 96%; in [2] (setting [10]), 61%. Besides, the results for the inhibition at 50 µM in [1] (setting [10]) and in [2] (setting [10]) were 96% and 75%, respectively. Further, the “Reduction in GABA response (mean (s.d.))” value in data set [1] (1 µM) is recorded as 78 (12) %; in data set [1] (10 µM), 90 (13) %; in [1] (50 µM) it was 97 (5) %; in data set [2] (10 µM), 48 (6) %; in [2] (50 µM), 56 (6) %. Besides, the “reduction in sensitivity induced by the mutation” value in data set [5] (PTX, mutant vs wild-type oocytes) was “approximately 100 fold”. Moreover, in data set [2] (1 μM PTX, Ala to Ser mutant (FIG. 10d)), the “block of the GABA response, in words” value was “little effect”. Moreover, the “sensitivity of Ala>Ser mutant compared with wild-type” value in data set [2] is listed as “consistently lower sensitivity”.
Take `C[N+]1(C)CCc2cc3c(cc2[C@H]1[C@@H]1OC(=O)c2c1ccc1c2OCO1)OCO3` [bicuculline, (-)-bicuculline methiodide]: the “block of GABA-evoked currents by bicuculline” value in [1] (bicuculline 100 μM with 10 μM GABA (FIG. 10a)) was “not blocked”.
As for `ClC1=C(Cl)[C@]2(Cl)[C@@H]3[C@@H]4C[C@@H]([C@H]5O[C@@H]45)[C@@H]3[C@@]1(Cl)C2(Cl)Cl` [dieldrin], the mortality at 0.03 mg in the data set with D. melanogaster [6] (flies carrying the cosmid 6 insert (Rdl^R/Rdl^S), n=221) amounted to 93%; with D. melanogaster [6] (siblings without the insert (Rdl^R/Df(3L)29A6), n=214), 7%. In addition, the “susceptibility to 30 μg dieldrin, in words” value is on record as “susceptible” in the data set with D. melanogaster [6] (flies carrying the w+ S insert) and “resistant” with D. melanogaster [6] (siblings without the insert). The “sensitivity of larval central nerve cord of Rdl^R-MD” value in data set [7] is “Insensitivity”. Further, the solubility entry in [1] (dissolved in DMSO, diluted to final 0.1% DMSO, concentration above 10 μM not possible) is “limited solubility”. In addition, the inhibition at 10 µM in data set [1] (setting [10]) was 78%; in data set [1] (read-out: block of the GABA response, 10 μM dieldrin, wild-type "sensitive" cDNA (FIG. 10c)) it was over 75%; in data set [2] (setting [10]) it was 23%. Also, the “Reduction in GABA response (mean (s.d.))” value in [1] (10 µM) was 80 (6) %; in data set [2] (10 µM), 12 (11) %. Further, the “loss of sensitivity conferred by the mutation” value in [5] (dieldrin, from comparison of effects of lower doses) is reported as 50-100 fold. Further, the “block of the GABA response, in words” value in [2] ([…] μM dieldrin, insensitive mutant cDNA (FIG. 10e)) is given as “little effect”. In [2] (mutation of resistant D. melanogaster), the “sensitivity of expressed chloride ion channels carrying the Ala to Ser mutation” value was “insensitivity”. In addition, the “sensitivity of Ala>Ser mutant compared with wild-type” value in data set [2] is “consistently lower sensitivity”. Further, the “survival of RR flies” value in the data set with D. melanogaster [8] (RR flies) is recorded as 85%. Further, in the data set on D. melanogaster [8] (RS and SS flies), the “kill of RS and SS genotypes” value is “kills all RS and SS genotypes”.
Regarding `NCc1cc(=O)[nH]o1` [muscimol, muscimol hydrobromide], the “response of mutant channels to GABA and muscimol compared with wild-type channels” value in data set [2] was “apparently identical to the wild-type channels”.
Turning to `N#CS` [thiocyanate], the “permeation through chloride ion channels relative to chloride” value in the data set with chloride ion channels is on record as “seven”.
